ChEMBL document CHEMBL1130685, “Anthelmintic beta-hydroxyketoamides (BKAs)” (1998)

Key:
[1] = tested on: Meriones unguiculatus; assay: Compound was evaluated for percentage clearance of Haemonchus contortus from jirds at the dose of 68 mg/kg; type: functional
[2] = tested on: Meriones unguiculatus; assay: Compound was evaluated for percentage clearance of Haemonchus contortus from jirds at dose of 25 mg/kg; type: functional

| Structure (SMILES) | Parasite_Clearance [1] [%] | Parasite_Clearance [2] [%] |
| --- | --- | --- |
| O=C(Nc1ccc(Br)cc1)c1c(O)nc2sc(C(F)(F)F)nn2c1=O | 82 |  |
| Cn1c(=O)c(C(=O)Nc2ccc(Br)cc2)c(O)c2ccccc21 | 81 |  |
| O=C(Nc1ccc(Br)cc1)C1=C(O)[C@@H]2[C@H](C1=O)[C@@H]1C=C[C@H]2C1 | 98 |  |
| Cc1cc(O)c(C(=O)Nc2ccc(Br)cc2)c(=O)o1 | 76 |  |
| O=C(Nc1ccc(Br)cc1)c1c(O)c2ccccc2oc1=O | 89 |  |
| O=C(Nc1ccc(Br)cc1)c1c(O)c2cccnc2oc1=O | 100 |  |
| CN1C(=O)C(=C(O)Nc2ccc(Br)cc2)C(=O)N(C)C1=O | 100 | 81 |
| O=C(Nc1ccc(Br)cc1)C1=C(O)c2ccccc2C1=O | 100 |  |
| O=C(Nc1ccc(Br)cc1)C1=C(O)C2C3C=CC(O3)C2C1=O (stereo not given) | 92 |  |
